Patent US20250144562A1, “ELECTROCHEMICAL CO2 CAPTURE WITH AIR STABLE REDOX SPECIES” (President and Fellows of Harvard College, priority 2022, published 2025)

Legend:
[1] = Stability in air of reduced BTMAPAQ isomers (with and without captured CO2) tracked by 1H NMR
[2] = Reduction potentials stated for choice of chemical reductant; settings: pH=7
[3] = pH >6; cited from earlier work
[4] = Cyclic voltammetry of the water-soluble redox molecules; settings: for redox peak separation: 0.1 M in 1 M TBABr
Text: Cyclic voltammetry was used to examine the electrochemical behaviors of the water-soluble redox molecules in the presence/absence of CO2.

[5] = Stability in air of 2,7-BTMAPFL-OH stirred in air for 12 hours, 1H NMR; assay type: physicochemical; settings: vigorously stirred in air 12 hours
Protocol: We vigorously stirred the solution in air for 12 hours, then checked its ^1H NMR spectra before and after being stirred in air.
The 2,7-BTMAPFL molecule undergoes PCET process and forms 2,7-BTMAPFL-OH after the electrochemical reduction; meanwhile, the electrolyte pH swings from near neutral (˜7) to ˜14. Therefore, we also investigated the air stability of 2,7-BTMAPFL-OH at pH 14 by vigorously stirring the pH 14 solution in air for 12 hours.

[6] = with captured CO2, D2O, 1 M KCl
[7] = with captured CO2, D2O, 1 M KCl, air exposure
[8] = with captured CO2, D2O, 1 M KCl, air exposure, day-4
[9] = with captured CO2, D2O, 1 M KCl, air exposure, day-6
[10] = without captured CO2, D2O, 1 M KCl
[11] = without captured CO2, D2O, 1 M KCl, air exposure
[12] = without captured CO2, D2O, 1 M KCl, air exposure, day-3

## C[N+](C)(C)CCCOc1cccc2c1C(=O)c1cccc(OCCC[N+](C)(C)C)c1C2=O [1,5-BTMAPAQ]
[1]; [6]
  oxidation by air of the reduced species: very slow
[1]; [7]
  day on which peaks of oxidized state start to appear: 4 days
[1]; [8]
  reduced form with captured CO2 converted to the oxidized form: 15.0%
[1]; [9]
  reduced form with captured CO2 converted to the oxidized form: 22.3%
[1]; [10]
  oxidation by air of the reduced species: very slow
[1]; [11]
  air stability (1H NMR spectra unchanged): good air stability over the first day
  day on which peaks of oxidized state start to appear: 2 days
[1]; [12]
  reduced form converted to the oxidized form: 37.0%
[1]; without captured CO2, D2O, 1 M KCl, air exposure, day-5
  reduced form converted to the oxidized form: 47.4%
[1]; without captured CO2, D2O, 1 M KCl, loosely capped, air exposure, day-2
  reduced form converted to the oxidized form: 23.6%

## C[N+](C)(C)CCCOc1ccc(OCCC[N+](C)(C)C)c2c1C(=O)c1ccccc1C2=O [1,4-BTMAPAQ]
[1]; [6]
  oxidation by air of the reduced species: relatively slow
[1]; [7]
  day on which peaks of oxidized state start to appear: 2 days
[1]; with captured CO2, D2O, 1 M KCl, air exposure, day-3
  reduced form with captured CO2 converted to the oxidized form: 51.5%
[1]; [8]
  reduced form with captured CO2 converted to the oxidized form: 73.0%
[1]; [9]
  reduced form with captured CO2 converted to the oxidized form: 98.0%
[1]; [10]
  oxidation by air of the reduced species: very slow
[1]; [11]
  day on which peaks of oxidized state start to appear: 3 days
[1]; [12]
  reduced form converted to the oxidized form: 11.3%
[1]; without captured CO2, D2O, 1 M KCl, air exposure, day-4
  reduced form converted to the oxidized form: 27.6%
[1]; without captured CO2, D2O, 1 M KCl, air exposure, day-6
  reduced form converted to the oxidized form: 50%

## bis-(trimethylammonio)propyl anthraquinone [BTMAPAQ]
[2]
  reduction potential: −0.41 V vs. SHE

## O=NO [NO2, nitrite]
[3]
  air-stability: superior air-stability

## C[N+](C)(C)CCCOc1ccc2c(c1)C(=O)c1cc(OCCC[N+](C)(C)C)ccc1-2 [2,7-BTMAPFL]
[4]; 0.1 M in 1 M KCl at pH 7, scan rate 100 mV/s
  cyclic voltammetry peaks observed: a reduction peak but no oxidation peak
[4]; 0.1 M in 1 M KOH at pH 14, scan rate 100 mV/s
  potential of the pair of redox peaks: −0.67 V vs. Ag/AgCl
[4]; pH 7
  electrochemical reversibility: poor reversibility
[4]; pH 14
  electrochemical reversibility: good reversibility

## O=S([O-])S(=O)[O-].[Na+].[Na+] [Na2S2O4, sodium dithionite, reference compound]
[2]
  reduction potential: −0.66 V vs. SHE

## C[N+](C)(C)CCCOc1cccc2c1C(=O)c1c(OCCC[N+](C)(C)C)cccc1C2=O [1,8-BTMAPAQ]
[1]; with captured CO2, 1 M TBABr
  time the reduced species with captured CO2 can withstand the presence of air: 5 days
[1]; with captured CO2, D2O, 1 M TBABr
  oxidation by air of the reduced species: extremely slow
[1]; with captured CO2, D2O, 1 M TBABr, air exposure day 1 to day 9
  day on which peaks of oxidized state appear: 9 days
[4]; absence of CO2, scan rate 100 mV/s
  redox peak separation: 100 mV
[4]; in the presence of CO2, scan rate 100 mV/s
  redox peak separation: 200 mV

## C[N+](C)(C)CCCOc1ccc2c(c1)C(O)c1cc(OCCC[N+](C)(C)C)ccc1-2 [2,7-BTMAPFL-OH]
[5]; D2O, 1 M KCl, pH 7
  air stability (1H NMR spectra unchanged): excellent air stability over 12 hours
[5]; pH 14
  air stability (1H NMR spectra almost unchanged): excellent air stability over 12 hours
